In assay [1] the test system is phenylquinone writhing (mice). The assay is described as follows: Phenylquinone writhing test. The note with it: for ED50: Mus musculus, po, read-out: PQW ED50; for PQW ED50: oral. In kind it is in vivo, mouse (female white). The protocol:
Phenylquinone Writhing Test
A standard procedure for detecting and comparing the analgesic activity of compounds in this series for which there is a good correlation with human efficacy is the standard phenylquinone writhing test modified from Siegmund, et al., Proc. Soc. Exp. Biol. Med., 95, 729 (1957). A test compound suspended in 1% methylcellulose was given orally to fasted (17-21 hours) female white mice, 5-20 animals per double blind test. Aqueous (0.01% phenyl-p-benzoquinone)phenylquinone, 0.20 ml per mouse, was injected intraperitoneally 6 minutes before observations were begun. […] Rev., 11, 115-145 (1947). Data for some of the compounds is summarized in Table 4 together with data for some standard analgetic antiinflammatory drugs.
On the technique in general: In writhing tests, fewer writhes than in controls are read as antinociception.

The test system of assay [2] is adjuvant-induced arthritis in rats. The assay is described as follows: Established adjuvant-induced arthritis in rats. The class given is in vivo, rat (male Charles River Lewis). Conditions: for Adjuvant Arthritis, decrease in paw volume from controls at dose indicated: @ 9 mg/kg; for ED50: Rattus norvegicus, read-out: Adjuvant Arthritis ED50.
The target of assay [3] is T1, bovine seminal vesicle prostaglandin synthetase (PGS) (Bos taurus, UniProt O62664).
T1 construct: purchased Miles; host or cells: bovine seminal vesicle
T1 sequence (O62664 25-600): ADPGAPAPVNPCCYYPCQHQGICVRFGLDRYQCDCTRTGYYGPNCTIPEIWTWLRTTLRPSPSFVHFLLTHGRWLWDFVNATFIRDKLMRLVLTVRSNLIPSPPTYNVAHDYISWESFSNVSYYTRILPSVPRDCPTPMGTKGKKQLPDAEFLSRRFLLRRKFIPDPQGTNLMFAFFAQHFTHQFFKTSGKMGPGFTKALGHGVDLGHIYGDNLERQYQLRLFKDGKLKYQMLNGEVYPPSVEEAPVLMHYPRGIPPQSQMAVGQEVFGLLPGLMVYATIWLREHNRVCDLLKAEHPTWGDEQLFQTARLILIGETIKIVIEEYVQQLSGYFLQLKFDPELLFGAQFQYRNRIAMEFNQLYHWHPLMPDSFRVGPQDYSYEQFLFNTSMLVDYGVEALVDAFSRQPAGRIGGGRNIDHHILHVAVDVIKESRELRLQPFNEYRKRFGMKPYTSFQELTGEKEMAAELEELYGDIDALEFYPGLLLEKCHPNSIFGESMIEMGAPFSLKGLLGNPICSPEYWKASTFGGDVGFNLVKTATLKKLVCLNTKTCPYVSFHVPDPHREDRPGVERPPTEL
The assay is described as follows: Prostaglandin synthetase inhibition assay. In kind it is biochemical. The note with it: 14C-arachidonic acid 0.02 mM, pH 8.5, 10 minutes. The protocol:
Prostaglandin Synthetase Inhibition Assay
The resulting labelled prostaglandins were isolated on small columns of Bio-Sil® A silica gel. The reaction was buffered with 0.13M Tris.Cl (pH 8.5) and included 0.6 mM epinephrine, 2.1 mM reduced glutathione, and 0.09 mM EDTA, which favored PGE2 as the primary product [C. […] Miles bovine seminal vesicle prostaglandin synthetase (20 μg), inhibitor, cofactor, and buffer were mixed and preincubated for two minutes at 37° C. The substrate was added to initiate the reaction which was run for 10 minutes. The reaction was stopped by freezing in a slurry of dry ice/ethanol. All reactions were run in duplicate. Inhibitors were bead-milled overnight and diluted in reaction buffer (0.2M Tris.Cl, pH 8.5). Inhibition was calculated by the following formula: [formula]

The mark [4] stands for this setting: fasted female white mice, phenylquinone i.p.
The mark [5] stands for this setting: oral, 7 daily doses, ED50 % decrease from control paw volume, uninjected left hind paw.

Where two headings read alike, the source gives them in different places.

These results are taken from patent US4548943A, “Antiinflammatory, analgesic, or anti-primary dysmenorrheal arylmethylene- and arylmethylindenoimidazoles” (E. I. Du Pont de Nemours and Company, priority 1984, dated 1985).

For orientation: ED50 means the dose that gives a 50% effect, or the effect in half of the subjects. For the compound `CC(=O)Oc1ccccc1C(=O)O` [Aspirin, aspirin, reference compound], the median effective dose (ED50) in assay [1] came to 135 mg/kg.
As a reminder, the IC50 is the concentration that gives 50% inhibition. Lower therefore signals inhibition by little substance. In the case of `FC(F)(F)Sc1nc2c([nH]1)/C(=C/c1ccccc1)c1ccccc1-2` [Example 2], the “Adjuvant Arthritis, decrease in paw volume from controls at dose indicated” value (from here on “Adjuvant Arthritis, decrease”) in assay [2] (oral, 7 daily doses) came out at 12%. The IC50 in assay [3] was below 75 µM. The ED50 in assay [1] (setting [4]) came to 35 mg/kg.
For `O=S(=O)(c1nc2c([nH]1)/C(=C\c1ccccc1)c1ccccc1-2)C(F)(F)F` [Example 3] the same measures were 37%, 0.93 µM and above 81 mg/kg.
In turn, `COc1ccc(CC2c3ccccc3-c3nc(S(=O)(=O)C(F)(F)F)[nH]c32)cc1` (stereo not drawn) [Example 4, 1,8-DIHYDRO(OR 3,8-DIHYDRO)-2-(TRIFLUOROMETHYLSULFONYL)-8-[(4-METHOXYPHENYL)METHYL]INDENO[1,2-d]-IMIDAZOLE] returned an IC50 in assay [3] of 1.2 µM.
For the compound `O=S(=O)(c1nc2c([nH]1)/C(=C/c1ccccc1)c1ccccc1-2)C(F)(F)F` [Example 5, 1,8-Dihydro(or 3,8-dihydro)-2-(trifluoromethylsulfonyl)-8-(phenylmethylene)indeno[1,2-d]imidazole, E isomer], the values for the ED50 in assay [2] (setting [5]) and in assay [1] (setting [4]) were 5.3 mg/kg and 1 mg/kg, respectively. Half-maximal inhibition in assay [3] (IC50) required 0.023 µM.
With `COc1ccc(C=C2c3ccccc3-c3nc(SC(F)(F)F)[nH]c32)cc1` [Example 7], the “Adjuvant Arthritis, decrease” value in assay [2] (oral, 7 daily doses) was determined as 39%. The compound also yielded a concentration for half-maximal inhibition (IC50) in assay [3] of 0.58 µM. Besides, the ED50 in assay [1] (setting [4]) was above 108 mg/kg.
As to `COc1ccc(C=C2c3ccccc3-c3nc(S(=O)(=O)C(F)(F)F)[nH]c32)cc1` [Example 8, 1,8-dihydro(or 3,8-dihydro)-2-(trifluoromethylsulfonyl)-8-[(4-methoxyphenyl)methylene]-indeno[1,2-d]imidazole, Z isomer], the “Adjuvant Arthritis, decrease” value in assay [2] (oral, 7 daily doses) worked out at 5%. The compound further registered an IC50 in assay [3] of 0.31 µM. The “PQW ED50” value in assay [1] (setting [4]) is listed as above 36 mg/kg.
On to `COc1ccc(C=C2c3ccccc3-c3nc(S(=O)(=O)C(F)(F)F)[nH]c32)cc1` [Example 9, 1,8-Dihydro(or 3,8-dihydro)-2-(trifluoromethylsulfonyl)-8-[(4-methoxyphenyl)methylene]indeno[1,2-d]imidazole, E isomer], for which, in assay [2] (setting [5]), the ED50 was determined as 1.95 mg/kg. Further, in assay [3], the IC50 was 0.02 µM. In assay [1] (setting [4]), the “PQW ED50” value was found to be 1.44 mg/kg.
As to `Fc1ccc(C=C2c3ccccc3-c3nc(SC(F)(F)F)[nH]c32)cc1` [Example 11], the “Adjuvant Arthritis, decrease” value in assay [2] (oral, 7 daily doses) is on record as 39%. The compound also returned an IC50 in assay [3] of 2.7 µM. Also, the ED50 in assay [1] (setting [4]) stood at 21 mg/kg.
In the case of `[O-][S+](c1nc2c([nH]1)C(=Cc1ccc(F)cc1)c1ccccc1-2)C(F)(F)F` (stereo not drawn) [Example 12, 1,8-Dihydro(or 3,8-dihydro)-2-(trifluoromethylsulfinyl)-8-[(4-fluorophenyl)methylene]indeno[1,2-d]imidazole, E isomer], in assay [2] (oral, 7 daily doses), the “Adjuvant Arthritis, decrease” value is on record as 48%. Besides, inhibition in assay [3] was half-maximal at 0.48 µM (IC50). Besides, the median effective dose (ED50) in assay [1] (setting [4]) was 0.76 mg/kg.
As for `O=S(=O)(c1nc2c([nH]1)C(=Cc1ccc(F)cc1)c1ccccc1-2)C(F)(F)F` [Example 13], the ED50 in assay [2] (setting [5]) was found to be 9.8 mg/kg; in assay [1] (setting [4]), 53.6 mg/kg. In assay [3], this compound yielded an IC50 of 0.42 µM.
Regarding `CC(C)Cc1ccc(C(C)C(=O)O)cc1` (stereo not drawn) [Ibuprofen, ibuprofen, reference compound], the values for the ED50 in assay [2] (setting [5]) and in assay [1] (setting [4]) were 80 mg/kg and 10 mg/kg, respectively.
Take `COc1ccc2c(c1)c(CC(=O)O)c(C)n2C(=O)c1ccc(Cl)cc1` [Indomethacin, indomethacin, reference compound]: the median effective dose (ED50) stood at 0.25 mg/kg in assay [2] (po) and 0.35 mg/kg in assay [1].
Turning to `CCCCC1C(=O)N(c2ccccc2)N(c2ccccc2)C1=O` [Phenylbutazone, phenylbutazone, reference compound], the ED50 in assay [2] (setting [5]) is 10 mg/kg; in assay [1] (setting [4]), 80 mg/kg. This compound also displayed an IC50 in assay [3] of 270 µM.
